Here are results for 18 compounds from BindingDB's records for doi:10.1021/jm0703035 (Research Triangle Institute, 2007).

Molecules are shown by their SMILES. Where only a bound is given, the exact number is not on record here.

For assay [1], the target named is Transporter (Rattus norvegicus, UniProt Q63380). Briefly: Ligand Binding Assay. The method, then:
Brains from male Sprague-Dawley rats were removed, dissected, and rapidly frozen. Ligand binding experiments were conducted in assay tubes containing radioligand, rat membrane tissue, and test compounds. Incubations were terminated by filtration with through GF/B filters. Results were analyzed using the Equilibrium Binding Data Analysis software (EBDA, Biosoft).

Assay [2] concerns the target Sodium-dependent noradrenaline transporter (Homo sapiens, UniProt P23975). Briefly: Ligand Binding Assay.

Chain of Transporter (Q63380 whole entry): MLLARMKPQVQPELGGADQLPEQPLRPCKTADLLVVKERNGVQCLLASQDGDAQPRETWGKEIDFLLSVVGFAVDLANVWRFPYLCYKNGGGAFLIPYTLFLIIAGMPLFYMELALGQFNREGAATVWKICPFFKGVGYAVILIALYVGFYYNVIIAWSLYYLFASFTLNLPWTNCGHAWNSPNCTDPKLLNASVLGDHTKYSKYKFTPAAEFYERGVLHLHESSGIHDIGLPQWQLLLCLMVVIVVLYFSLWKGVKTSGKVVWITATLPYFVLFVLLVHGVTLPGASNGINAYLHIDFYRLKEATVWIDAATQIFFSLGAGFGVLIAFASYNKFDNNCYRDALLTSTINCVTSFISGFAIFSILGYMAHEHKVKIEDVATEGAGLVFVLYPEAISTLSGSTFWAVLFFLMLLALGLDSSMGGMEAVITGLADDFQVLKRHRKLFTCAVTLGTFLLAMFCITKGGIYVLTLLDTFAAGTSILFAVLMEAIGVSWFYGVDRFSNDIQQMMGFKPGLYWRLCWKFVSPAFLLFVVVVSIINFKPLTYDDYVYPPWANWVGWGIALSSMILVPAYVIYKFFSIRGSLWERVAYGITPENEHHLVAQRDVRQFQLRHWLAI
Chain of Sodium-dependent noradrenaline transporter (P23975 whole entry): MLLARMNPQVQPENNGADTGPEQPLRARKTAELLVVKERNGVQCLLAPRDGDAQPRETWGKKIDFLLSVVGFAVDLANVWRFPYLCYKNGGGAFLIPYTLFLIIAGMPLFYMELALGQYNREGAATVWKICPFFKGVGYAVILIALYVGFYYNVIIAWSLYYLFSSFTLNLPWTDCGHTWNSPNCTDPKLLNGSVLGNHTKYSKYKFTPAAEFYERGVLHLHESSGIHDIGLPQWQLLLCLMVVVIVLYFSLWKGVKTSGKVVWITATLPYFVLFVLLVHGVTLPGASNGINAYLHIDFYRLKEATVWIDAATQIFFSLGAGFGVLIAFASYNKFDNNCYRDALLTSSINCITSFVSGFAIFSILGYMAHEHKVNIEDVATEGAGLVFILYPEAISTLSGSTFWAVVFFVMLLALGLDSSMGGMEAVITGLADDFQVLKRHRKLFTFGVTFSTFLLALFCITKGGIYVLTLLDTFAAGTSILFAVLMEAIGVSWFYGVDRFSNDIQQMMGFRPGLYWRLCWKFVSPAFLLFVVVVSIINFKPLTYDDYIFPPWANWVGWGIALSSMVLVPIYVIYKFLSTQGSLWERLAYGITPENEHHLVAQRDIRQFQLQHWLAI

Turning to `CN1[C@H]2CC[C@@H]1[C@@H](c1ncc(-c3ccc(Cl)c(Cl)c3)s1)[C@@H](c1ccc(Cl)cc1)C2` [2-[(1R,2S,3S,5S)-3-(4-chlorophenyl)-8-methyl-8-azabicyclo[3.2.1]octan-2-yl]-5-(3,4-dichlorophenyl)-1,3-thiazole], the Ki in assay [1] is above 2000 nM.

Take `COc1ccc(-c2cnc([C@H]3[C@@H](c4ccc(Cl)cc4)C[C@@H]4CC[C@H]3N4C)s2)cc1OC` [2-[(1R,2S,3S,5S)-3-(4-chlorophenyl)-8-methyl-8-azabicyclo[3.2.1]octan-2-yl]-5-(3,4-dimethoxyphenyl)-1,3-thiazole]: the Ki in assay [1] is above 2000 nM.

`CN1[C@H]2CC[C@@H]1[C@@H](c1ncc(-c3cccc([N+](=O)[O-])c3)s1)[C@@H](c1ccc(Cl)cc1)C2` [2-[(1R,2S,3S,5S)-3-(4-chlorophenyl)-8-methyl-8-azabicyclo[3.2.1]octan-2-yl]-5-(3-nitrophenyl)-1,3-thiazole] gave a Ki in assay [1] above 2000 nM.

Take `CN1[C@H]2CC[C@@H]1[C@@H](c1ncc(-c3ccc(F)cc3)s1)[C@@H](c1ccc(Cl)cc1)C2` [2-[(1R,2S,3S,5S)-3-(4-chlorophenyl)-8-methyl-8-azabicyclo[3.2.1]octan-2-yl]-5-(4-fluorophenyl)-1,3-thiazole]: in assay [1], the Ki is above 2000 nM.

The compound `COc1ccc(-c2cnc([C@H]3[C@@H](c4ccc(Cl)cc4)C[C@@H]4CC[C@H]3N4C)s2)cc1` [2-[(1R,2S,3S,5S)-3-(4-chlorophenyl)-8-methyl-8-azabicyclo[3.2.1]octan-2-yl]-5-(4-methoxyphenyl)-1,3-thiazole] yielded a Ki in assay [1] above 2000 nM.

In the case of `CN1[C@H]2CC[C@@H]1[C@@H](c1ncc(-c3ccc([N+](=O)[O-])cc3)s1)[C@@H](c1ccc(Cl)cc1)C2` [2-[(1R,2S,3S,5S)-3-(4-chlorophenyl)-8-methyl-8-azabicyclo[3.2.1]octan-2-yl]-5-(4-nitrophenyl)-1,3-thiazole], in assay [1], the Ki was above 2000 nM.

`CN1[C@H]2CC[C@@H]1[C@@H](c1ncc(-c3ccccc3)s1)[C@@H](c1ccc(Cl)cc1)C2` [2-[(1R,2S,3S,5S)-3-(4-chlorophenyl)-8-methyl-8-azabicyclo[3.2.1]octan-2-yl]-5-phenyl-1,3-thiazole] returned an EC50 in assay [2] of 750 nM.

In assay [1], `Cc1ccc([C@H]2C[C@@H]3CC[C@H]([C@H]2c2ncc(-c4cccc([N+](=O)[O-])c4)s2)N3C)cc1` [2-[(1R,2S,3S,5S)-8-methyl-3-(4-methylphenyl)-8-azabicyclo[3.2.1]octan-2-yl]-5-(3-nitrophenyl)-1,3-thiazole] gave a Ki above 4300 nM.

Turning to `Cc1ccc([C@H]2C[C@@H]3CC[C@H]([C@H]2c2ncc(-c4ccc([N+](=O)[O-])cc4)s2)N3C)cc1` [2-[(1R,2S,3S,5S)-8-methyl-3-(4-methylphenyl)-8-azabicyclo[3.2.1]octan-2-yl]-5-(4-nitrophenyl)-1,3-thiazole], the inhibition constant (Ki) in assay [1] is above 2000 nM.

`Cc1ccc([C@H]2C[C@@H]3CC[C@H]([C@H]2c2ncc(-c4ccc(Cl)c(Cl)c4)s2)N3C)cc1` [5-(3,4-dichlorophenyl)-2-[(1R,2S,3S,5S)-8-methyl-3-(4-methylphenyl)-8-azabicyclo[3.2.1]octan-2-yl]-1,3-thiazole]: the EC50 in assay [2] stood at 4000 nM. This compound yielded a Ki in assay [1] above 2000 nM.

Turning to `COc1ccc(-c2cnc([C@H]3[C@@H](c4ccc(C)cc4)C[C@@H]4CC[C@H]3N4C)s2)cc1OC` [5-(3,4-dimethoxyphenyl)-2-[(1R,2S,3S,5S)-8-methyl-3-(4-methylphenyl)-8-azabicyclo[3.2.1]octan-2-yl]-1,3-thiazole], in assay [1], the Ki is above 2000 nM.

Consider `CN1[C@H]2CC[C@@H]1[C@@H](c1ncc(-c3cccc(Br)c3)s1)[C@@H](c1ccc(Cl)cc1)C2` [5-(3-bromophenyl)-2-[(1R,2S,3S,5S)-3-(4-chlorophenyl)-8-methyl-8-azabicyclo[3.2.1]octan-2-yl]-1,3-thiazole], for which the Ki in assay [1] was above 2000 nM.

Consider `Cc1ccc([C@H]2C[C@@H]3CC[C@H]([C@H]2c2ncc(-c4cccc(Br)c4)s2)N3C)cc1` [5-(3-bromophenyl)-2-[(1R,2S,3S,5S)-8-methyl-3-(4-methylphenyl)-8-azabicyclo[3.2.1]octan-2-yl]-1,3-thiazole], for which the Ki in assay [1] was above 2000 nM.

`CN1[C@H]2CC[C@@H]1[C@@H](c1ncc(-c3ccc(Br)cc3)s1)[C@@H](c1ccc(Cl)cc1)C2` [5-(4-bromophenyl)-2-[(1R,2S,3S,5S)-3-(4-chlorophenyl)-8-methyl-8-azabicyclo[3.2.1]octan-2-yl]-1,3-thiazole]: the Ki in assay [1] is above 2000 nM.

Take `CN1[C@H]2CC[C@@H]1[C@@H](c1ncc(-c3ccc(Cl)cc3)s1)[C@@H](c1ccc(Cl)cc1)C2` [5-(4-chlorophenyl)-2-[(1R,2S,3S,5S)-3-(4-chlorophenyl)-8-methyl-8-azabicyclo[3.2.1]octan-2-yl]-1,3-thiazole]: the Ki in assay [1] is above 2000 nM.

As for `Cc1ccc([C@H]2C[C@@H]3CC[C@H]([C@H]2c2ncc(-c4ccc(Cl)cc4)s2)N3C)cc1` [5-(4-chlorophenyl)-2-[(1R,2S,3S,5S)-8-methyl-3-(4-methylphenyl)-8-azabicyclo[3.2.1]octan-2-yl]-1,3-thiazole], in assay [1], the Ki is above 2000 nM.

On to `Cc1ccc([C@H]2C[C@@H]3CC[C@H]([C@H]2c2ncc(-c4ccc(F)cc4)s2)N3C)cc1` [5-(4-fluorophenyl)-2-[(1R,2S,3S,5S)-8-methyl-3-(4-methylphenyl)-8-azabicyclo[3.2.1]octan-2-yl]-1,3-thiazole], for which, in assay [1], the inhibitory constant (Ki) was above 2000 nM.

In the case of `COc1ccc(-c2cnc([C@H]3[C@@H](c4ccc(C)cc4)C[C@@H]4CC[C@H]3N4C)s2)cc1` [5-(4-methoxyphenyl)-2-[(1R,2S,3S,5S)-8-methyl-3-(4-methylphenyl)-8-azabicyclo[3.2.1]octan-2-yl]-1,3-thiazole], the EC50 in assay [2] worked out at 1810 nM. This compound had a Ki in assay [1] above 2000 nM.

Broadly, the Ki is the equilibrium dissociation constant of an inhibitor or competing ligand from its target. Low readings indicate a stronger hold on the target, high ones a looser hold on the target. Usually EC50 stands for the concentration that produces a half-maximal response. The low end stands for an effect from little substance, the high end for a need for much substance.
